According to patent publication US10799593B2, “Nanodiamond particle complexes” (priority 2008, dated 2020):

Assays:
[1] = ND pulldown with UV-Vis spectrophotometric analysis of drug adsorption; format: physicochemical; conditions: 14,000 rpm, 2 hours, 25° C.
Description: All samples underwent centrifugation at 14,000 rpm for 2 hours at 25° C., where the supernatant was then subsequently collected for spectroscopic scans from 200 nm to 600 nm. Drug loading concentrations were determined via ND-complex pull-down experiments which comprised of an initial absorbance reading, then a 2 hour centrifuge of all samples at 25° C. and 14000 RPM followed by a final absorbance reading. The concentration of loaded drug was then calculated by measuring the difference between the initial and final readings.

[2] = Particle size and zeta potential measurement (DLS) of ND-drug complexes; format: physicochemical; conditions: for average particle size upon complexing with NDs: ND 1 mg/mL, therapeutic 0.1 mg/mL
Description: The particle size and zeta potential of the complexes were measured using a Zetasizer Nano (Malvern Instruments). […] ND:Purvalanol A complexes were prepared in a similar manner in 5% aqueous DMSO as described previously. […] All size measurements were performed at 25° C. at a 90° scattering angle. Mean hydrodynamic diameters were obtained via cumulative analysis of 11 measurements.

[3] = Desorption of drug from Nanodiamond conjugates in water and PBS; format: physicochemical
[4] = Nanodiamond-drug binding assays (UV-vis spectrophotometry, centrifugation); format: physicochemical; conditions: UV-vis spectrophotometry and centrifugation (14000 rpm) pelleting
Description: The binding efficiency of therapeutics such as daunorubicin, idarubicin, and others were analyzed using UV-vis spectrophotometry, as well as centrifugation assays (SEE FIGS. 18-39). In all cases, nanodiamond-drug interactions were capable of comprehensively pelleting the therapeutics (SEE FIGS. 19, 22, 25, 28, 30, 33, 36, and 39), indicating potent adsorption which was further confirmed via spectrophotometric analysis […], […], 1-32, 34-35, and 37-38).

[5] = Dispersion in water / turbidity of drug with and without NDs; format: physicochemical; conditions: DMSO mixtures diluted 20 fold in water to 5% DMSO; 0.1 mg/ml Purvalanol A, 1 mg/ml ND
[6] = test system: HepG2 tissue culture cells; assay: DNA fragmentation (laddering) assay; format: cell-based; conditions: 24 hours, 10:1 ND:Purvalanol A in 5% DMSO in water, 1:10 dilution
Description: A 1:10 dilution of 5% DMSO in water, NDs in 5% DMSO in water (1 mg/ml), ND:Purvalanol A in 5% DMSO in water (10:1 ratio—1 mg/ml ND, 0.1 mg/ml Purvalanol A), and Purvalanol A in 5% DMSO in water (0.1 mg/ml) were added to HepG2 tissue culture cells and grown for 24 hours. The cultured cells were lysed in 500 μL lysis buffer (10 mM Tris-HCl, pH 8.0, 10 mM EDTA, 1% Triton X-100). 30-minute incubations at 37° C. followed separate RNase A and proteinase K treatment. Following phenol chloroform extraction, nuclear DNA was isolated in isopropyl alcohol and stored at −80° C. overnight. The samples were then resuspended in DEPC water following a 70% ethanol wash and electrophoresed using a 0.8% agarose gel, and finally stained with ethidium bromide.

[7] = DLS analysis of NDs, insulin and ND-insulin (size, PDI, zeta potential); format: physicochemical; conditions: for Average Size (μm): DLS hydrodynamic cluster size
Description: Hydrodynamic size and zeta potential of samples was measured with a Zetasizer Nano (Malvern Instruments, Worcestershire, United Kingdom). NDs and insulin were prepared as previously described. Briefly, the particles were suspended in buffer with corresponding pH at a concentration of 50 mg/mL. The size measurements were performed at 25° C. and at a 173° scattering angle. The mean hydrodynamic diameter was determined by cumulative analysis. The zeta potential determinations were based on electrophoretic mobility of the microparticles in the aqueous medium, which was performed using folded capillary cells in automatic mode.

[8] = Insulin desorption from NDs in NaOH of varying pH; format: physicochemical; conditions: 4:1 ratio; NaOH at pH 10.5
Description: Determination of insulin adsorption to NDs was performed by protein detection assays before and after centrifugation. Insulin was added to a ND suspension, centrifuged at 14,000 rpm for 2 hours and the resultant solution extracted and quantified. Detection of desorbed insulin was performed by adding alkaline solutions of 1 mM NaOH, adjusted for varying pH, to samples of ND-insulin in suspension. Binding ratios were determined similar to the adsorption test.
The desorption assays were conducted in a similar manner as the adsorption assays. Aqueous solutions of FITC-labeled and standard insulin were added to ND suspensions at 5:1 and 4:1 ratios, respectively. Initial and centrifuged samples were measured, and the amount of insulin desorbed was calculated. […] Separate tests at pH 10.7 show the ND-insulin complex achieving 53.3±1.2% desorption.

Insulin 1 (Ins1) = assay: Quantitative RT-PCR gene expression, Ins1; format: cell-based, murine; conditions: 3T3-L1 adipocytes; serum-starved 4 hours, 2-hour recovery; (2) 0.1 μM insulin
Description: (§1) RT-PCR procedures were conducted as described previously. 3T3-L1 adipocytes were plated in 6-well plates, serum-starved for 4 hours and then recovered in media solutions of DMEM, insulin, approximately 0.1 μM insulin released from ND-insulin by NaOH (pH 10.5), resultant solution from centrifuged ND-insulin in pH-neutral water, ND-insulin treated with NaOH (1 μM total insulin) and NDs with bound insulin (ND-insulin, 1 μM total insulin). Preparations of media solutions containing DMEM, insulin, NDs and NaOH were conducted in a similar fashion to those implemented for the MTT assay. RNA isolation was completed by lysing cells with TRIzol reagent (Invitrogen Corporation, Carlsbad, Calif.) and added to chloroform to obtain genetic material by centrifugation. cDNA synthesis was performed using the iScript Select cDNA Synthesis Kit (Bio-Rad, Hercules, Calif.). PCR expression of the Ins1 and Csf3/G-csf genes (Integrated DNA Technologies, Coralville, Iowa) were quantified by the MyiQ Single Color Real-Time PCR machine (Bio-Rad, Hercules, Calif.) using SYBER Green detection reagents (Quanta Biosciences, Gaithersburg, Md.). The Rpl32 gene (Integrated DNA Technologies) served as the housekeeping gene for normalization of cDNA among samples.

[9] = reference [38]; cited from earlier work
[10] = 5-day insulin desorption test; format: physicochemical; conditions: for cumulative insulin released from NDs by day 1: of total adsorbed insulin, 4:1 ratio
Description: Additionally, a 5-day desorption test was conducted to determine cumulative insulin release. Samples were prepared by combining NDs and insulin (4:1 ratio), centrifuging at 14,000 rpm for 2 hours and extracting the remaining solution to remove any non-adsorbed insulin. Subsequently, a 1 mM NaOH solution adjusted to pH 10.5 was added to the samples, mixed thoroughly and centrifuged after a 24-hour period to determine protein concentration utilizing a BCA assay. In addition to alkaline-mediated release, water was added to a separate set of samples. The samples were replenished with NaOH or water after each measurement for the respective conditions, and the process was repeated every 24 hours over the course of 5 days.

[11] = test system: Granulocyte colony-stimulating factor (Csf3/G-csf); assay: Quantitative RT-PCR gene expression, Csf3/G-csf; format: cell-based, murine; conditions: 3T3-L1 adipocytes; (2) 0.1 μM insulin
Description: as §1

[12] = test system: RAW 264.7 macrophage cells; assay: MTT cell viability assay after serum starvation; format: cell-based, murine; conditions: serum-starved 8 hours, 24-hour recovery, 0.1 μM versus 1 μM insulin
Description: RAW 264.7 murine macrophages were plated in 96-well plates, serum-starved for 8 hours and then incubated for 24 hours. Post-starvation media was composed of the following conditions: DMEM, 0.1 μM insulin, 1 μM insulin, DMEM 10% FBS, approximately 0.1 μM insulin released from ND-insulin complex by NaOH at pH 10.5 (insulin present in media), resultant solution from centrifuged ND-insulin in water, ND-insulin treated with NaOH at pH 10.5 (1 μM total insulin, ND-insulin complex present in media) and ND-insulin (1 μM total insulin, ND-insulin complex present in media). Insulin released from NDs was prepared by centrifuging samples of NDs with adsorbed insulin in NaOH and extracting the resultant solution, which could be reconstituted with media to 0.1 μM insulin. In a similar fashion, water was utilized as a neutral solution for relevant desorption analysis. Methylthiazolyldiphenyl-tetrazolium bromide (MTT) solution (Sigma-Aldrich) was added corresponding to 10% of total volume, and then incubated for 3 hours. After formazan crystal formation, the media was removed and MTT solvent, 0.1N HCl in anhydrous isopropanol (Sigma-Aldrich), was added to samples to solubilize the MTT dye. Sample absorbance measurements occurred at 570 nm, accounting for background at a wavelength of 690 nm.

Molecule: 4-hydroxytamoxifen [4-OHT]
- UV-Vis absorbance of supernatant before and after centrifugation (pulldown) [1]: insignificant change in the UV-Vis absorbance
- average particle size upon complexing with NDs [2]: 278.9 nm
- mean diameter (particle size) ([2]; in 5% DMSO, not complexed): 485.1 nm

Molecule: COc1cccc2c1C(=O)c1c(O)c3c(c(O)c1C2=O)C[C@@](O)(C(C)=O)C[C@@H]3O[C@H]1C[C@H](N)[C@H](O)[C@H](C)O1 [DAUN, daunorubicin]
- release profile of drug desorbed from Nanodiamond conjugates [3]: drug elution is sustained over several hours
- binding / adsorption between ND surface and therapeutic [4]: exceptional binding

Molecule: COc1cccc2c1C(=O)c1c(O)c3c(c(O)c1C2=O)C[C@@](O)(C(=O)CO)C[C@@H]3O[C@H]1C[C@H](N)[C@@H](O)[C@H](C)O1 [EPI, epirubicin]
- release profile of drug desorbed from Nanodiamond conjugates [3]: drug elution is sustained over several hours
- binding / adsorption between ND surface and therapeutic [4]: exceptional binding

Molecule: CC(=O)[C@]1(O)Cc2c(O)c3c(c(O)c2[C@@H](O[C@H]2C[C@H](N)[C@H](O)[C@H](C)O2)C1)C(=O)c1ccccc1C3=O [IDA, idarubicin]
- release profile of drug desorbed from Nanodiamond conjugates [3]: drug elution is sustained over several hours
- binding / adsorption between ND surface and therapeutic [4]: exceptional binding

Molecule: CC(C)[C@H](CO)Nc1nc(Nc2cccc(Cl)c2)c2ncn(C(C)C)c2n1 [Purvalanol A]
- turbidity after dilution in water [5]: precipitated out of solution, producing a turbid liquid
- DNA fragmentation [6]: Fragmentation was evident
- average particle size upon complexing with NDs [2]: 556 nm

Molecule: insulin: bovine insulin (Sigma-Aldrich)
- zeta potential at pH 10.5 compared with pH 7 [7]: substantially more negative
- zeta potential ([7]; at both pH 7 and 10.5): negative values
- PDI ([7]; pH 7): 0.97 ± 0.046
- Average Size (μm) ([7]; pH 7): 1.59 ± 0.038 μm
- PDI ([7]; pH 10.5): 0.99 ± 0.011
- Average Size (μm) ([7]; pH 10.5): 2.28 ± 0.66 μm
- desorption (release) of standard insulin from NDs [8]: 31.3±1.6%
- relative expression of Ins1 (Insulin 1 (Ins1)): lowest expression of Ins1
- isoelectric point [9]: approximately 5.6
- amount of insulin released with NaOH relative to water ([10]; 5 days): more than 20 times
- total insulin eluted from NDs by day 5 ([10]; NaOH (pH 10.5)): 45.8±3.8 wt %
- cumulative insulin released from NDs by day 1 ([10]; NaOH (pH 10.5)): 32.7±1.9 wt %
- total insulin eluted from NDs by day 5 ([10]; water): 2.2±1.2 wt %
- cumulative insulin released from NDs by day 1 ([10]; water): 0.2±0.1 wt %
- relative expression of Csf3/G-csf [11]: comparably higher than that of Ins1
- relative viability [12]: increased viability at higher insulin concentrations
